Columns and labels:
[1] = Pharmacokinetics after intravenous and oral administration in rats; type: in vivo; conditions: for clearance (CL) / AUC(0-t) / half-life / Vd: iv dosing, 1 mg/kg; for F: oral bioavailability; for AUC(0-t) / half-life / Vd: rat, plasma; for Vd: read-out: Vss
Description: The LC/MS/MS system used in the analysis consists of an Agilent 1200 Series vacuum degasser, binary pump, well-plate autosampler, thermostatted column compartment, the Agilent G6430 Triple Quadrupole Mass Spectrometer with an electrosprayionization (ESI) source. Quantitative analysis was carried out using MRM mode. The parameters for MRM transitions are in the Table A.
An Agilent XDB-C18, 2.1×30 mm, 3.5 μM column was used for the analysis. 5 μL of the samples were injected. Analysis condition: The mobile phase was 0.1% formic acid in water (A) and 0.1% formic acid in methanol (B). The flow rate was 0.4 mL/min. And the gradient of Mobile phase was in the Table B.
Alternatively, an Agilent 6330 series LC/MS/MS spectrometer equipped with G1312A binary pumps, a G1367A autosampler and a G1314C UV detector were used in the analysis. An ESI source was used on the LC/MS/MS spectrometer. The analysis was done in positive ion mode as appropriate and the MRM transition for each analyte was optimized using standard solution. A Capcell MP-C18 100×4.6 mm I.D., […] column (Phenomenex, Torrance, Calif., USA) was used during the analysis. The mobile phase was 5 mM ammonia acetate, 0.1% MeOH in water (A): 5 mM ammonia acetate, 0.1% MeOH in acetonitrile (B) (70:30, v/v). The flow rate was 0.6 mL/min. Column was maintained at ambient temperature. 20 μL of the samples were injected.
The compounds disclosed herein are assessed in pharmacokinetic studies in mice, rats, dogs or monkeys. The compounds are administered as a water solution, 2% HPMC+1% TWEEN®80 in water solution, 5% DMSO+5% solutol in saline, 4% MC suspension or capsule. For the intravenous administration, the animals are generally given at 1 or 2 mg/kg dose. For the oral (p.o.) dosing, mice and rats are generally given 5 or 10 mg/kg dose, and dogs and monkeys are generally given 10 mg/kg dose. The blood samples (0.3 mL) are drawn at 0.25, 0.5, 1.0, 2.0, 3.0, 4.0, 6.0, 8.0, 12 and 24 h time points or 0.083, 0.25, 0.5, 1.0, 2.0, 4.0, 6.0, 8.0 and 24 h time points and centrifuged at 3,000 or 4000 rpm for 2 to 10 min. The plasma solutions are collected, and stored at −20° C. or −70° C. until analyzed by LC/MS/MS as described above.

JAK1 (h) = biological target: T1, JAK1 (h) (Homo sapiens, UniProt P23458); assay: JAK1 (h) kinase assay; type: biochemical
T1 construct: purchased Millipore UK Ltd (contract assay service)
Description: (§1) The above assay procedure can be used to determine the IC50 for inhibition and/or the inhibition constant, Ki. The IC50 is defined as the concentration of compound required to reduce the enzyme activity by 50% under the condition of the assay. The IC50 value is estimated by preparing a 10 point curve using a ½ log dilution series (for example, a typical curve may be prepared using the following compound concentrations: 3 μM, 1 μM, 0.3 μM, 0.1 μM, 0.03 μM, 0.01 μM, 0.003 μM, 0.001 μM, 0.0003 μM and 0 μM).
(§2) JAK1 (h) is incubated with 20 mM Tris/HCl pH 7.5, 0.2 mM EDTA, 500 μM GEEPLYWSFPAKKK, 10 mM MgAcetate and [γ-^33P-ATP] (specific activity approx. 500 cpm/pmol, concentration as required). The reaction is initiated by the addition of the MgATP mix. After incubation for 40 minutes at room temperature, the reaction is stopped by the addition of 3% phosphoric acid solution. 10 μL of the reaction is then spotted onto a P30 filtermat and washed three times for 5 minutes in 75 mM phosphoric acid and once in methanol prior to drying and scintillation counting.
(§3) The kinase assays described herein were performed at Millipore UK Ltd, Dundee Technology Park, Dundee DD2 1SW, UK.

JAK2 (h) = biological target: T2, JAK2 (h) (Homo sapiens, UniProt O60674); assay: JAK2 (h) kinase assay; type: biochemical
T2 construct: purchased Millipore UK Ltd (contract assay service)
Description: as §1
as §2, with “JAK2 (h)” for “JAK1 (h)”, “with 8” for “with 20”, “mM MOPS” for “mM Tris/HCl”, “pH 7.0,” for “pH 7.5,”, “EDTA, 100” for “EDTA, 500”, “μM […],” for “μM GEEPLYWSFPAKKK,”
as §3

T1 sequence (P23458 whole entry): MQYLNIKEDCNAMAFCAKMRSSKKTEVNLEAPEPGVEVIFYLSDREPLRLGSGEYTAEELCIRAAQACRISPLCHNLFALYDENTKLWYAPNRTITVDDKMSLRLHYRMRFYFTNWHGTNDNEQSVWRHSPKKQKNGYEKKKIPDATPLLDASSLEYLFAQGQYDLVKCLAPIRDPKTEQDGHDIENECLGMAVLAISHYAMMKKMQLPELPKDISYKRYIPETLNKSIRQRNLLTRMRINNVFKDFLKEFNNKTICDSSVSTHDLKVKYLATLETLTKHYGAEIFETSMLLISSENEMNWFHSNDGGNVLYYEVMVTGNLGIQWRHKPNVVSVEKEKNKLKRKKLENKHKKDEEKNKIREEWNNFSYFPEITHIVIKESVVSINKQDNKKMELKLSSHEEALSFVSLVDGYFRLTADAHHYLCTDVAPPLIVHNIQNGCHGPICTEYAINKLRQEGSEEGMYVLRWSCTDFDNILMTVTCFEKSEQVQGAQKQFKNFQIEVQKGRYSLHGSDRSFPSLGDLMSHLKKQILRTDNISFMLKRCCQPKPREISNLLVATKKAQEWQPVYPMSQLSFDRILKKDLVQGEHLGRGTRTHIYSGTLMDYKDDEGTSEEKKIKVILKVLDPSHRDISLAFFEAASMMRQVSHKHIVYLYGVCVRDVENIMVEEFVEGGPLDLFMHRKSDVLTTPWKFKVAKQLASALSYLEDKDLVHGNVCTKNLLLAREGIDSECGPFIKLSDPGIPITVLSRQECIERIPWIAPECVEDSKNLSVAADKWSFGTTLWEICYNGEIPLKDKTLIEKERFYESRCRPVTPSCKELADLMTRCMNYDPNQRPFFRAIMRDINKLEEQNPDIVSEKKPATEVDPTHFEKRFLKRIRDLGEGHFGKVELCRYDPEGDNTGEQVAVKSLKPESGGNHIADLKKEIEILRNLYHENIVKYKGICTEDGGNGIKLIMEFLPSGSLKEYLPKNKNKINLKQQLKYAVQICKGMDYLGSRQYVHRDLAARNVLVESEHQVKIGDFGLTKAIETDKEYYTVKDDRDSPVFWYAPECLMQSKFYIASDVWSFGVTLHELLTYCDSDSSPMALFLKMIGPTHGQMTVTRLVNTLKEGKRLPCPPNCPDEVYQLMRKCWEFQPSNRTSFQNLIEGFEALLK
T2 sequence (O60674 whole entry): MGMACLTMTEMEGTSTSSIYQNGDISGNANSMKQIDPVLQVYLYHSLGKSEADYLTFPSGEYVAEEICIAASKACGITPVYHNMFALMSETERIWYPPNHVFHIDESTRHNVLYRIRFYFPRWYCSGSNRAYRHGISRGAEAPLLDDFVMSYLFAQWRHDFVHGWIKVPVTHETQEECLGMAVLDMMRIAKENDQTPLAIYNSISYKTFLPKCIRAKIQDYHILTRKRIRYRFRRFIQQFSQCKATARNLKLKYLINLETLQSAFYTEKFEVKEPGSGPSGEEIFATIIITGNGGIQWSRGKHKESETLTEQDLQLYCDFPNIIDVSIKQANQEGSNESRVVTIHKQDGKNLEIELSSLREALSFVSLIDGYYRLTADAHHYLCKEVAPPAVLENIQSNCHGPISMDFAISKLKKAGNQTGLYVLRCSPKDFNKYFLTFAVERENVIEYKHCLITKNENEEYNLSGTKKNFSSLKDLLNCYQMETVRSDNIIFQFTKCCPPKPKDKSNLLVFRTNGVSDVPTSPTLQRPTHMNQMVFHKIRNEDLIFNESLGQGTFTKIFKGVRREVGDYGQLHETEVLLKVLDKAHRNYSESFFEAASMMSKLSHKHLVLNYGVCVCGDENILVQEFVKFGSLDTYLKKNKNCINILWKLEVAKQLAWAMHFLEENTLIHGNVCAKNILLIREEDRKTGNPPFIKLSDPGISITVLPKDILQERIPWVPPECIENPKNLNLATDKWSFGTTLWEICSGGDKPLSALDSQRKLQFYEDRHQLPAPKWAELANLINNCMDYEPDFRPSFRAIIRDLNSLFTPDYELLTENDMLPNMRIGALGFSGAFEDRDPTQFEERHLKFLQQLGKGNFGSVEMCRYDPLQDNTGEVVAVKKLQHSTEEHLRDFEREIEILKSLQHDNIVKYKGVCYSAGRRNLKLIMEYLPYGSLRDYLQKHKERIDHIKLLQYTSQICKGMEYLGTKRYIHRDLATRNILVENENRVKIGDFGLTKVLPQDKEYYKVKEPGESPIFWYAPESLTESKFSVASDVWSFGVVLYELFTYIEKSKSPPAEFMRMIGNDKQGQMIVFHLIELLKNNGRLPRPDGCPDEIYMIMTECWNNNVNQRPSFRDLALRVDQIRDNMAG

Row | clearance (CL) [1] | F [1] | AUC(0-t) [1] | half-life [1] | Vd [1] | IC50 (JAK1 (h)) | IC50 (JAK2 (h)) | SMILES
1 | 29.7 mL/min/kg | 182.46% | 572 ng·h/mL | 30.6 min | 0.67 L/kg | 800 pM | 17000 pM | CN(c1nc(Nc2cnn(C)c2)ncc1Cl)C1CCN(c2ccc(C#N)cn2)CC1 [Ex. 5, 6-(4-((5-chloro-2-((1-methyl-1H-pyrazol-4-yl)amino)pyrimidin-4-yl) (methyl)amino)piperidin-1-yl)nicotinonitrile]
2 | – | – | – | – | – | 400 pM | 1000 pM | Cc1cc(Nc2ncc(Cl)c(NC3CCN(c4ccc(C#N)nn4)CC3)n2)nn1C [Ex. 13, 6-(4-((5-chloro-2-((1,5-dimethyl-1H-pyrazol-3-yl)amino)pyrimidin-4-yl)amino)piperidin-1-yl)pyridazine-3-carbonitrile]
3 | 7.17 mL/min/kg | 78.76% | 2340 ng·h/mL | 103 min | 0.72 L/kg | 300 pM | 2000 pM | Cc1c2ccc(Nc3ncc(Cl)c(NC4CCN(c5ccc(C#N)cn5)CC4)n3)cc2nn1C [Ex. 4]
4 | 17.7 mL/min/kg | 61.8% | 931 ng·h/mL | 27 min | 0.62 L/kg | 400 pM | 2000 pM | Cc1nn(C)cc1Nc1ncc(Cl)c(NC2CCN(c3ccc(C#N)nn3)CC2)n1 [Ex. 11, 6-(4-((5-chloro-2-((1,3-dimethyl-1H-pyrazol-4-yl)amino)pyrimidin-4-yl)amino)piperidin-1-yl)pyridazine-3-carbonitrile]
5 | 9.67 mL/min/kg | 75.3% | 1740 ng·h/mL | 43.2 min | 0.63 L/kg | < 300 pM | 1000 pM | Cc1nn(C)cc1Nc1ncc(Cl)c(NC2CCN(c3ccc(C#N)cn3)CC2)n1 [Ex. 10, 6-(4-((5-chloro-2-((1,3-dimethyl-1H-pyrazol-4-yl)amino)pyrimidin-4-yl)amino)piperidin-1-yl)nicotinonitrile]
6 | 11.3 mL/min/kg | 39.2% | 1480 ng·h/mL | 29.4 min | 0.5 L/kg | < 300 pM | < 300 pM | Cc1c2ccc(Nc3ncc(Cl)c(NC4CCN(c5ccc(C#N)nn5)CC4)n3)cc2nn1C [Ex. 12, 6-(4-((5-chloro-2-((2,3-dimethyl-2H-indazol-6-yl)amino)pyrimidin-4-yl)amino)piperidin-1-yl)pyridazine-3-carbonitrile]
7 | 3.83 mL/min/kg | 136.8% | 4660 ng·h/mL | 58.8 min | 0.31 L/kg | < 300 pM | 500 pM | Cn1cc(Nc2ncc(Cl)c(NC3CCN(c4ccc(C#N)cn4)CC3)n2)cn1 [Ex. 1, 6-(4-((5-chloro-2-((1-methyl-1H-pyrazol-4-yl)amino)pyrimidin-4-yl)amino)piperidin-1-yl)nicotinonitrile]

From patent US10059689B2, “Substituted heteroaryl compounds and methods of use” (Sunshine Lake Pharma Co., Ltd., priority 2014, dated 2018)
